From publication PMC6471591, “Preparation of Sesquiterpene Lactone Derivatives: Cytotoxic Activity and Selectivity of Action” (Molecules, 2019)
Where two headings read alike, the source gives them in different places.

Key:
A549 cells [1] = assay: Antiproliferative SRB assay (NCI protocol), 48 h; assay type: cell-based; conditions: Homo sapiens; A549 (lung), SRB, 48 h drug exposure; read-out: 50% growth inhibition (GI50) ± SD, A549
Method: (§1) In vitro antiproliferative activity was evaluated using the protocol of the National Cancer Institute (NCI) after 48 h of drug exposure using the sulforhodamine B (SRB) assay. […] We cannot discard that increasing lipophilicity may well result in an increase in cytotoxicity in vitro.
(§2) The following human solid tumor cell lines were used in this study: HBL-100 (breast), HeLa (cervix), SW1573 (non-small cell lung), T-47D (breast), A549 (lung), and WiDr (colon). Cells were maintained in 25 cm^2 culture flasks in RPMI 1640 supplemented with 5% heat-inactivated fetal calf serum and 2 mM L-glutamine in a 37 °C, 5% CO2, 95% humidified air incubator. Exponentially growing cells were trypsinized and resuspended in antibiotic containing medium (100 units penicillin G and 0.1 mg of streptomycin per mL). Single-cell suspensions displaying >97% viability by trypan blue dye exclusion test were subsequently counted. After counting, dilutions were made to give the appropriate cell densities for inoculation onto 96-well microtiter plates. Cells were inoculated in a volume of 100 μL per well at densities of 20,000 (WiDr), 15,000 (T-47D and A549), and 10,000 (HeLa, SW1573, and HBL-100) cells per well, based on their doubling times.
(§3) Chemosensitivity tests were performed using the SRB assay of the NCI with slight modifications. Briefly, pure compounds were initially dissolved in DMSO at 400 times the desired final maximum test concentration. Control cells were exposed to an equivalent concentration of DMSO (0.25% v/v, negative control). Each agent was tested in triplicate at different dilutions in the range 1–100 μM. Drug treatment started on day 1 after plating. Drug incubation periods were 48 h, after which cells were precipitated with 25 μL of ice-cold 50% (w/v) trichloroacetic acid and fixed for 60 min at 4 °C. Then, the SRB assay was performed. Optical density (OD) of each well was measured at 492 nm, using BioTek’s PowerWave XS Absorbance Microplate Reader (Highland Park, Winooski, VT, USA). Values were corrected for background OD from wells containing only culture medium. The percentage growth (PG) was calculated with respect to untreated control cells (C) at each level of drug concentrations based on the difference in OD at the start time (T0) and at the end of drug exposure (T), according to NCI formulas. Therefore, if T is greater than or equal to T0, the calculation is 100 × [(T–T0)/(C–T0)]. If T is lower than T0, denoting cell death, the calculation is 100 × [(T–T0)/(T0)]. The effect is defined as the growth percentage, where 50% growth inhibition (GI50) represents the concentration at which PG is +50. Based on these calculations, a PG value of 0 corresponds to the number of cells present at the beginning of drug exposure, while negative PG values denote net cell death.

HeLa cells [2] = assay: Antiproliferative SRB assay (NCI protocol), 48 h; assay type: cell-based; conditions: Homo sapiens; HeLa (cervix), SRB, 48 h drug exposure; read-out: 50% growth inhibition (GI50) ± SD, HeLa
Method: as §1, §2, §3

HBL100 cells [3] = assay: Antiproliferative SRB assay (NCI protocol), 48 h; assay type: cell-based; conditions: Homo sapiens, HBL-100; HBL100 (breast), SRB, 48 h drug exposure; read-out: 50% growth inhibition (GI50) ± SD, HBL100
Method: as §1, §2, §3

HBL100 cells [4] = assay: Antiproliferative SRB assay (NCI protocol), 48 h; assay type: cell-based, human; conditions: splenocyte CC50 versus HBL100 GI50
A549 cells [5] = assay: Antiproliferative SRB assay (NCI protocol), 48 h; assay type: cell-based, human; conditions: splenocyte CC50 versus A549 GI50
HeLa cells [6] = assay: Antiproliferative SRB assay (NCI protocol), 48 h; assay type: cell-based, human; conditions: splenocyte CC50 versus HeLa GI50
WiDr cells = assay: Antiproliferative SRB assay (NCI protocol), 48 h; assay type: cell-based, human; conditions: for GI50: Homo sapiens, WiDr (colon), SRB, 48 h drug exposure, read-out: 50% growth inhibition (GI50) ± SD, WiDr; for Selectivity Index, WiDr: splenocyte CC50 versus WiDr GI50
Method: as §1, §2, §3

SW1573 cells = assay: Antiproliferative SRB assay (NCI protocol), 48 h; assay type: cell-based, human; conditions: for GI50: Homo sapiens, SW1573 (non-small cell lung), SRB, 48 h drug exposure, read-out: 50% growth inhibition (GI50) ± SD, SW1573; for Selectivity Index, SW1573: splenocyte CC50 versus SW1573 GI50
Method: as §1, §2, §3

T47-D cells = assay: Antiproliferative SRB assay (NCI protocol), 48 h; assay type: cell-based, human; conditions: for GI50: Homo sapiens, T47D, T47-D (breast), SRB, 48 h drug exposure, read-out: 50% growth inhibition (GI50) ± SD, T47-D; for Selectivity Index, T47-D: splenocyte CC50 versus T47-D GI50
Method: as §1, §2, §3

[7] = Cytotoxicity on primary cell culture (propidium iodide, flow cytometry); assay type: cell-based
Method: The cytotoxicity of the sesquiterpene lactones and its derivatives was evaluated using mouse splenocytes. […] Cumanin derivatives (4–11) have shown CC50 values and selectivity indexes higher than natural compound 1. […] The incorporation of two triazole groups in cumanin (1) reduced cytotoxicity on normal cells and improved selectivity against tumor cell lines.
In a 96-well plate, spleen cells from Balb/c mouse (1.5 × 10^5) were incubated with different drug dilutions (200, 100, 50, 10, and 5 μg/mL) in RPMI medium containing 10% fetal calf serum. After 48 h of incubation at 37 °C (5% CO2), cells were harvested, washed once with PBS, and stained with 2.5 μg/mL propidium iodide (PI) for 5 min at room temperature. Subsequently, cell death was assessed by flow cytometry using a BD FACSaria II cytometer. Cells incubated only with a drug vehicle were used as a 100% viability control and death percentage was calculated according to the following formula: Death(%)=[1−(%PI^−cells)drug−treated/(%PI^−cells)100% viability control]×100.
Then the concentration capable of causing cell death in 50% of splenocytes (CC50) was determined using a non-linear regression approach.

[8] = system: human solid tumor cell lines (A549, HBL-100, HeLa, SW1573, T-47D, WiDr); assay: Antiproliferative SRB assay, whole panel of tumor cell lines; assay type: cell-based; conditions: tumor cell line panel, compared to cumanin (1)
Method: as §1, §2, §3

Structure (SMILES) | GI50 (A549 cells [1]) [µM] | GI50 (HeLa cells [2]) [µM] | GI50 (HBL100 cells [3]) [µM] | Selectivity Index, HBL100 (HBL100 cells [4]) | Selectivity Index, A549 (A549 cells [5]) | Selectivity Index, HeLa (HeLa cells [6]) | GI50 (WiDr cells) [µM] | Selectivity Index, WiDr (WiDr cells) | GI50 (SW1573 cells) [µM] | Selectivity Index, SW1573 (SW1573 cells) | GI50 (T47-D cells) [µM] | Selectivity Index, T47-D (T47-D cells) | CC50 at 48 h ([7]; Balb/c, mouse) [µM] | antiproliferative activity in words [8] | CC50 at 48 h ([7]; primary mouse splenocytes (spleen cells), Balb/c mouse spleen cells, 48 h incubation, PI staining, read-out: CC50 ± SD, splenocytes (concentration that causes 50% cell death)) [µM] | CC50 ([7]; Balb/c mouse spleen cells, 48 h incubation, PI staining, read-out: CC50 ± SD, splenocytes (concentration that causes 50% cell death)) [µM]
C=C1C(=O)O[C@@H]2C[C@H](C)[C@@H]3C[C@H](O[Si](C)(C)C(C)C)[C@H](O[Si](C)(C)C(C)C)[C@@]3(C)C[C@H]12 [Compound 6] | 1.2 | 1.3 | 2.3 | 39.9 | 76.5 | 70.6 | 2.4 | 38.2 | 1.2 | 76.5 | 2.2 | 41.7 | 91.8 | – | – | –
C=C1C(=O)O[C@@H]2C[C@H](C)[C@@H]3C[C@H](O[Si](c4ccccc4)(c4ccccc4)C(C)(C)C)[C@H](O)[C@@]3(C)C[C@H]12 [Compound 7] | 1.6 | 2 | 3.7 | 38.6 | 89.2 | 71.3 | 3.1 | 46.0 | 1.5 | 95.1 | 3.4 | 42.0 | – | – | – | –
C#CCOC1CC2C(C)CC3OC(=O)C(=C)C3CC2(C)C1O (centres unmarked) [Compound 8] | 18 | 19 | 17 | 10.6 | 10.0 | 9.5 | 7.2 | 25.1 | 28 | 6.4 | 24 | 7.5 | – | moderate activity | – | –
C=C1C(=O)OC2CC(C)C3CC(OCc4cn(Cc5ccccc5)nn4)C(OCc4cn(Cc5ccccc5)nn4)C3(C)CC12 (centres unmarked) [Compound 11] | 3.7 | 5.9 | 6.4 | 81.9 | 141.6 | 88.8 | 2.3 | 227.9 | 4.7 | 111.5 | 9.7 | 54.0 | – | – | 524 | –
C=C1C(=O)O[C@@H]2C[C@@H](C)[C@@H]3C=CC(=O)[C@@]3(C)[C@@H](OC(C)=O)[C@H]12 [Compound 12] | – | – | 3.6 | 0.1 | – | – | – | – | 4.7 | 0.1 | 1.6 | 0.2 | – | – | – | 0.4
C=C1C(=O)O[C@@H]2[C@H]1CC[C@H](C)[C@@]1(O[Si](C)(C)C)C=CC(=O)[C@@]21C [Compound 15] | 3.4 | 3.3 | 4.6 | 0.5 | 0.7 | 0.7 | 6.8 | 0.3 | 2.4 | 0.9 | 4.2 | 0.5 | 2.3 | – | – | –
